Experiments:
ddY male mice = test: Acute toxicity (minimum lethal dose) in mice; assay type: in vivo; conditions: for minimum lethal dose: five 5-week-old ddY male mice
Procedure: Isoliquiritigenin was orally or intra-peritoneally administered to five 5-week-old ddY male mice. Consequently, it was determined that the minimum lethal dose was not less than 3000 mg/kg (oral administration) or not less than 1000 mg/kg (intra-peritoneal administration).

[1] = used in treatment of gastric ulcers; cited from earlier work
[2] = test system: rat peritoneal exudation cells; test: Inhibition effect on the liberation of histamine by compound 48/80; assay type: cell-based; conditions: for Liberation ratio of histamine (%): control 87.4, blank 9.3
Procedure: 2. Inhibition effect of the medicine on the liberation of histamine by compound 48/80.
(1) Preparation of rat peritoneal exudation cells
10 ml of Locke's solution containing 0.1% of bovine serum albumin was injected into the abdominal cavity of a rat which had been killed by exsanguination. The rat was lightly massaged, then subjected to an abdominal section so that an abdominal solution was collected. The abdominal cavity was also washed with 5 ml of the same solution and the washing solution was collected and mixed with the above abdominal solution. The abdominal solution was centrifuged at 500 rpm for 5 minutes, then 5 ml of cool Locke's solution was added to the sediment. After the sediment had been washed, 3 ml of cool Locke's solution was again added thereto to form a solution of rat peritoneal exudation cells.
(2) Inhibition effect of medicine on the liberation of histamine by compound 48/80.
0.5 ml of Locke's solution and 1.0 ml of each of the solutions of isoliquiritigenin prepared to the concentration shown in Table 2 (the isoliquiritigenin was dissolved in a physiological saline solution containing 1% sodium bicarbonate, the resultant solution being diluted with Locke's solution) were added to 0.3 ml of the solution of rat peritoneal exudation cells obtained in (1) above and were incubated at 37° C. for 5 minutes. Then, 0.2 ml each of a Locke's solution of the compound 48/80 (1 mg/100 ml) was added to the solution and the mixture was incubated at 37° C. for 10 minutes. After the reaction was stopped by cooling, the obtained solution was centrifuged at 2,500 rpm for 10 minutes to be separated into 1.7 ml of supernatant and 0.3 ml of sediment. 0.1 ml of water and 0.2 ml of 100% trichloroacetic acid were added to the supernatant, and 1.5 ml of Locke's solution and the 100% trichloroacetic acid were added to the sediment which was then allowed to stand for 30 minutes at room temperature and was centrifuged at 3,000 rpm for 15 minutes. 0.35 ml of each of the supernatant and the supernatant of the sediment was taken and 1.65 ml of water and 0.4 ml of 1N sodium hydroxide were added in turn to each of the supernatants. 0.1 ml of 0.5% OPT (orthophthalaldehyde) methanol solution was added to each of the resultant solutions which were then allowed to react at room temperature for 4 minutes. After the reaction was stopped by the addition of 0.2 ml of 2M citric acid, the fluorescence of each of the reaction solutions was measured by a fluorophotometer. […]
The inhibition ratio of isoliquiritigenin for the liberation of histamine by the compound 48/80 is calculated from the following equations: [formula]

[3] = Side effects when administered for a long time; assay type: in vivo; conditions: no test described
ileum of the guinea pig = test: Schultz-Dale reaction (antigen-induced contraction of ileum of actively sensitized guinea pig); assay type: cell-based, guinea pig (Hartley)
Procedure: The Schultz-Dale test and the inhibition effect of the compound of the present invention on the liberation of histamines by a compound 48/80 indicate that isoliquiritigenin has an antiallergic activity.
(1) Active sensitization of guinea pig by antigenic egg-white albumin (EWA)
After 1, 2 and 3 weeks, additional sensitization was conducted by injecting an equivalent mixed emulsion of a physiological saline solution of 4 mg/ml of EWA and complete Freund's adjuvant into the muscle at a ratio of 0.1 ml/100 g and the guinea pig was subjected to the Schultz-Dale reaction one week after the final sensitization.
(2) Schultz-Dale reaction
The ileum of the guinea pig which was actively sensitized in (1) above was extirpated and immediately soaked in Tyrode's solution to form a specimen of a length of 15 mm which was suspended at a tensile force of l.5 g in a Magnus' tube (10 ml) kept at a temperature of 37° C. Contraction of the ileum by 10^-6 mole of histamine. […] Then, after preincubation for about 2 minutes, 10 μg/ml of EWA was added to the Magnus' tube and the contraction of the ileum was recorded. As a control, the contraction of the ileum was measured by an operation which was similar to that of the above, except that the physiological saline solution of isoliquiritigenin containing 0.2% sodium bicarbonate was not applied. […]

O=C(/C=C/c1ccc(O)cc1)c1ccc(O)cc1O [Isoliquiritigenin, isoliquiritigenin]
minimum lethal dose (ddY male mice; intra-peritoneal administration): not less than 1000 mg/kg | minimum lethal dose (ddY male mice; oral administration): not less than 3000 mg/kg | toxicity (ddY male mice; result in words): very low toxicity | antiulcerous activity [1]: exhibits an antiulcerous activity | Liberation ratio of histamine (%) ([2]; isoliquiritigenin 100 mg/ml): 71.0% | Liberation ratio of histamine (%) ([2]; isoliquiritigenin 300 mg/ml): 32.7% | Liberation ratio of histamine (%) ([2]; isoliquiritigenin 1000 mg/ml): 9.2% | liberation of histamine from mast cells by compound 48/80 ([2]; result in words): inhibits histamines from liberating mast cells by the compound 48/80 | side effects [3]: few side effects | inhibition at 100 µM (ileum of the guinea pig; Cavia porcellus, 10^-4 mole, EWA 10 μg/ml, versus control, read-out: Inhibition ratio (%)): 90.2% | contraction of the ileum of the guinea pig by histamine and SRS-A (ileum of the guinea pig; result in words): inhibits the contraction of the ileum of the guinea pig by histamine and SRS-A

From patent US4952564A, “Antiallergic agent” (Dainippon Ink and Chemicals, Inc., priority 1986, dated 1990)
